The record followed here is patent US6509329B1, “Cyclic diamine compound with 6-membered ring groups” (Kowa Co., Ltd., priority 2001, dated 2003).

A word on the inhibition: it is the drop in the measured response relative to a control, in per cent.

The test system of the test is adhesion of U937 cells to HUVEC stimulated by IL-1β or TNFα. In words: Inhibitory effect on cell adhesion (U937 adhesion to stimulated HUVEC). It counts as cell-based. As to conditions: Homo sapiens, compound at 1 μM, fluorescence-labeled U937 adhesion for 1 hour. How it is done:
This test was conducted by reference to the method of Ross et al. (J. Biol. Chem., 267, 8537-8543 (1992)). More specifically, after human umbilical venous endothelial cells (HUVEC) were cultured on a 48-well plate to confluent growth, IL−1β or TNFα was added thereto. Upon elapsed time of 5 hours after the addition, U937, which is a human monocytic/histocytic cell fluorescence-labeled with PKH2 (product of Dainippon Pharmaceutical Co., Ltd.), was added in a proportion of 1×10^6 cells per well. After the plate was left at rest at room temperature for 1 hour, unadhered U937 was washed out and lysed in 1% Triton X-100 to measure a remaining fluorescence intensity (excitation wavelength: 480 nm; measuring wavelength: 530 nm). HUVEC and U937 were cultured in EGM-2 (product of Sanko Junyaku K.K.) and 10% FCS-containing RPMI1640, respectively. Each test agent was added to HUVEC upon the addition of IL-1β or TNFα and to U937 24 hours prior to the cell adhesion test. The inhibitory activity was calculated out according to the equation [100−(C−B)/(A−B)×100 (%)], wherein A is the number of U937 cells adhered to HUVEC stimulated by IL−1β or TNFα when no test agent was added, B is the number of U937 cells adhered to HUVEC not stimulated by IL-1β or TNFα when no test agent was added, and C is the number of U937 cells adhered to HUVEC stimulated by ILβ or TNFα when the test agent was added. As control compounds, Test Compound 1 described in Japanese Patent Application Laid-Open No. 9-143075 and dilazep described in Japanese Patent Application Laid-Open No. 11-92382 were simultaneously evaluated.

The mark [1] stands for this setting: HUVEC stimulated by IL-1β for 5 hours, read-out: Percent inhibition (%) of cell adhesion, Stimulation by IL-1β.
[2] abbreviates: HUVEC stimulated by TNFα for 5 hours, read-out: Percent inhibition (%) of cell adhesion, Stimulation by TNFα.

Like-named read-outs stand apart in the source and are kept apart here.

In the case of `COc1cc(C(=O)OCCCN2CCCN(CCCOC(=O)c3cc(OC)c(OC)c(OC)c3)CC2)cc(OC)c1OC` [Dilazep, dilazep, reference compound], the inhibition at 1 µM was found to be 0% under setting [1] and 12% under setting [2].

On to `COc1cc(-c2cc(CN3CCCN(Cc4ccnc(-c5cc(OC)c(OC)c(OC)c5)c4)CC3)ccn2)cc(OC)c1OC` [Example 10, N,N′-bis[[2-(3,4,5-Trimethoxyphenyl)pyridin-4-yl]methyl]homopiperazine], for which the inhibition at 1 µM by setting is: under setting [1], 63%; under setting [2], 71%.

On to `COc1cc(C#Cc2cc(CN3CCN(Cc4ccnc(C#Cc5cc(OC)c(OC)c(OC)c5)c4)CC3)ccn2)cc(OC)c1OC` [Example 22, N,N′-bis[[2-(3,4,5-Trimethoxyphenylethynyl)-pyridin-4-yl]methyl]piperazine], for which the inhibition at 1 µM under setting [1] amounted to 34% and the inhibition at 1 µM under setting [2] was 50%.

For the compound `COc1cc(-c2cc(CN3CCN(Cc4ccnc(-c5cc(OC)c(OC)c(OC)c5)c4)CC3)ccn2)cc(OC)c1OC` [Example 9, N,N′-bis[[2-(3,4,5-Trimethoxyphenyl)pyridin-4-yl]methyl]piperazine], the inhibition at 1 µM runs as follows: under setting [1], 53%; under setting [2], 64%.

As to `COc1cc(-c2cccc(CN3CCCN(Cc4cccc(-c5cc(OC)c(OC)c(OC)c5)c4)CC3)c2)cc(OC)c1OC` [Example 4, N,N′-bis[3-(3,4,5-Trimethoxyphenyl)benzyl]-homopiperazine], the inhibition at 1 µM was found to be 42% under setting [1] and 43% under setting [2].
